{"source": "PubChem BioAssay (NCI)", "assay_in_all_cases": "NCI-60 cell line screen, 48 h", "key": {"[1]": {"tested_on": "SNB-19 CNS"}, "[2]": {"tested_on": "NCI-H226 lung"}, "[3]": {"tested_on": "786-0 renal"}, "[4]": {"tested_on": "UACC-257 melanoma"}, "[5]": {"tested_on": "T-47D breast"}, "[6]": {"tested_on": "K-562 leukemia"}, "[7]": {"tested_on": "SK-OV-3 ovarian"}, "[8]": {"tested_on": "A498 renal"}, "[9]": {"tested_on": "NCI-H23 lung"}, "[10]": {"tested_on": "BT-549 breast"}, "[11]": {"tested_on": "U251 CNS"}, "[12]": {"tested_on": "SK-MEL-28 melanoma"}, "[13]": {"tested_on": "MDA-MB-468 breast"}, "[14]": {"tested_on": "OVCAR-3 ovarian"}, "[15]": {"tested_on": "RXF 393 renal"}, "[16]": {"tested_on": "UACC-62 melanoma"}, "[17]": {"tested_on": "UO-31 renal"}, "[18]": {"tested_on": "HT29 colon"}, "[19]": {"tested_on": "NCI-H522 lung"}, "[20]": {"tested_on": "MDA-MB-435"}, "[21]": {"tested_on": "MDA-MB-231 breast"}, "[22]": {"tested_on": "NCI-H460 lung"}, "[23]": {"tested_on": "SNB-75 CNS"}, "[24]": {"tested_on": "OVCAR-5 ovarian"}, "[25]": {"tested_on": "SW-620 colon"}, "[26]": {"tested_on": "EKVX NSCLC"}, "[27]": {"tested_on": "SR leukemia"}, "[28]": {"tested_on": "COLO 205 colon"}, "[29]": {"tested_on": "M14 melanoma"}, "[30]": {"tested_on": "MALME-3M melanoma"}}, "note": "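Five compound concentrations were applied to cells in 96-well plates for 48 hours; endpoints were derived by simple linear interpolation of the resulting dose-response curve. Here, GI50 denotes the concentration required for 50% inhibition of growth. TGI denotes the concentration required for complete inhibition of growth.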"}
{"compound": "Cc1cc2nc3c4ccccc4n(CCCN(C)C)c3nc2cc1C", "values": [{"measurement": "TGI", "setting": "[1]", "value": 11.5, "unit": "µM"}, {"measurement": "GI50", "setting": "[2]", "value": 2.38, "unit": "µM"}, {"measurement": "TGI", "setting": "[2]", "value": 9.14, "unit": "µM"}, {"measurement": "GI50", "setting": "[3]", "value": 3, "unit": "µM"}, {"measurement": "TGI", "setting": "[3]", "value": 11.8, "unit": "µM"}, {"measurement": "GI50", "setting": "[4]", "value": 1.84, "unit": "µM"}, {"measurement": "TGI", "setting": "[4]", "value": 4.41, "unit": "µM"}, {"measurement": "GI50", "setting": "[5]", "value": 2.72, "unit": "µM"}, {"measurement": "TGI", "setting": "[5]", "value": 9.11, "unit": "µM"}, {"measurement": "GI50", "setting": "[6]", "value": 2.52, "unit": "µM"}, {"measurement": "TGI", "setting": "[6]", "value": 10.2, "unit": "µM"}, {"measurement": "GI50", "setting": "[7]", "value": 2.05, "unit": "µM"}, {"measurement": "TGI", "setting": "[7]", "value": 5.93, "unit": "µM"}, {"measurement": "GI50", "setting": "[8]", "value": 3.97, "unit": "µM"}, {"measurement": "TGI", "setting": "[8]", "value": 13, "unit": "µM"}, {"measurement": "GI50", "setting": "[9]", "value": 1.71, "unit": "µM"}, {"measurement": "TGI", "setting": "[9]", "value": 4.1, "unit": "µM"}, {"measurement": "GI50", "setting": "[10]", "value": 2.51, "unit": "µM"}, {"measurement": "TGI", "setting": "[10]", "value": 9.68, "unit": "µM"}, {"measurement": "GI50", "setting": "[11]", "value": 2, "unit": "µM"}, {"measurement": "TGI", "setting": "[11]", "value": 6.42, "unit": "µM"}, {"measurement": "GI50", "setting": "[12]", "value": 3.06, "unit": "µM"}, {"measurement": "TGI", "setting": "[12]", "value": 9.72, "unit": "µM"}, {"measurement": "GI50", "setting": "[13]", "value": 2.46, "unit": "µM"}, {"measurement": "TGI", "setting": "[13]", "value": 7.54, "unit": "µM"}, {"measurement": "GI50", "setting": "[14]", "value": 2.46, "unit": "µM"}, {"measurement": "TGI", "setting": "[14]", "value": 6, "unit": "µM"}, {"measurement": "GI50", "setting": "[15]", "value": 2.28, "unit": "µM"}, {"measurement": "TGI", "setting": "[15]", "value": 7.09, "unit": "µM"}, {"measurement": "GI50", "setting": "[16]", "value": 1.89, "unit": "µM"}, {"measurement": "TGI", "setting": "[16]", "value": 4.97, "unit": "µM"}, {"measurement": "GI50", "setting": "[17]", "value": 0.6, "unit": "µM"}, {"measurement": "TGI", "setting": "[17]", "value": 3.27, "unit": "µM"}, {"measurement": "GI50", "setting": "[18]", "value": 1.45, "unit": "µM"}, {"measurement": "TGI", "setting": "[18]", "value": 4.53, "unit": "µM"}, {"measurement": "GI50", "setting": "[19]", "value": 1.44, "unit": "µM"}, {"measurement": "TGI", "setting": "[19]", "value": 3.45, "unit": "µM"}, {"measurement": "GI50", "setting": "[20]", "value": 2.09, "unit": "µM"}, {"measurement": "TGI", "setting": "[20]", "value": 4.52, "unit": "µM"}, {"measurement": "GI50", "setting": "[21]", "value": 1.94, "unit": "µM"}, {"measurement": "TGI", "setting": "[21]", "value": 4.79, "unit": "µM"}, {"measurement": "GI50", "setting": "[22]", "value": 2.31, "unit": "µM"}, {"measurement": "TGI", "setting": "[22]", "value": 6.76, "unit": "µM"}, {"measurement": "GI50", "setting": "[23]", "value": 1.85, "unit": "µM"}, {"measurement": "TGI", "setting": "[23]", "value": 10.2, "unit": "µM"}, {"measurement": "GI50", "setting": "[24]", "value": 2.34, "unit": "µM"}, {"measurement": "TGI", "setting": "[24]", "value": 6.87, "unit": "µM"}, {"measurement": "GI50", "setting": "[25]", "value": 1.72, "unit": "µM"}, {"measurement": "TGI", "setting": "[25]", "value": 5.45, "unit": "µM"}, {"measurement": "GI50", "setting": "[26]", "value": 3.01, "unit": "µM"}, {"measurement": "TGI", "setting": "[26]", "value": 10.1, "unit": "µM"}, {"measurement": "GI50", "setting": "[27]", "value": 2.03, "unit": "µM"}, {"measurement": "TGI", "setting": "[27]", "value": 6.94, "unit": "µM"}, {"measurement": "GI50", "setting": "[28]", "value": 1.32, "unit": "µM"}, {"measurement": "TGI", "setting": "[28]", "value": 2.85, "unit": "µM"}, {"measurement": "GI50", "setting": "[29]", "value": 1.69, "unit": "µM"}, {"measurement": "TGI", "setting": "[29]", "value": 3.5, "unit": "µM"}, {"measurement": "GI50", "setting": "[30]", "value": 1.82, "unit": "µM"}, {"measurement": "TGI", "setting": "[30]", "value": 3.91, "unit": "µM"}]}
